Legend:
[1] = In vitro labelling of purified sfGFP150 proteins with tetrazine-dye conjugate 4a, time course and rate constant; conditions: restated in example 6
Description: FIG. 2C: Determining the rate constant for labelling of sfGFP-3 (10.6 sfGFP incorporating 3 at position 150), with 10 equivalents of 4a. 2 nmol of purified sfGFP-3, (10.6 μM in 20 mM Tris-HCl, 100 mM NaCl, 2 mM EDTA, pH 7.4) were incubated with 20 nmol of tetrazine-dye conjugate 4a (10 μl of a 2 mM solution in DMSO). At different time points 8 μl, aliquots were taken from the solution and quenched with a 700-fold excess of BCN and plunged into liquid nitrogen. Samples were mixed with NuPAGE LDS sample buffer supplemented with 5% β-mercaptoethanol, heated for 10 min to 90° C. and analyzed by 4-12% SDS page. The amounts of labelled proteins were quantified by scanning the fluorescent bands with a Typhoon Trio phosphoimager (GE Life Sciences). Bands were quantified with the ImageQuant™ TL software (GE Life Sciences) using rubber band background subtraction. The rate constant was determined by fitting the data to a single-exponential equation. The calculated observed rate k′ was divided by the concentration of 4a to obtain rate constant k for the reaction. Measurements were done in triplicate. All data processing was performed using Kaleidagraph software (Synergy Software, Reading, UK). […]

PylRS/tRNACUA pair = PylRS/tRNACUA pair (Methanosarcina mazei, UniProt Q8PWY1); test: Amber suppression of mCherry-TAG-EGFP-HA in HEK293 cells (western blot); assay type: cell-based; set-up: expressed in transfected cells; host or cells: HEK293 (ATCC CRL-1573); conditions: amber stop codon
PylRS/tRNACUA pair, sequence (Q8PWY1 whole entry): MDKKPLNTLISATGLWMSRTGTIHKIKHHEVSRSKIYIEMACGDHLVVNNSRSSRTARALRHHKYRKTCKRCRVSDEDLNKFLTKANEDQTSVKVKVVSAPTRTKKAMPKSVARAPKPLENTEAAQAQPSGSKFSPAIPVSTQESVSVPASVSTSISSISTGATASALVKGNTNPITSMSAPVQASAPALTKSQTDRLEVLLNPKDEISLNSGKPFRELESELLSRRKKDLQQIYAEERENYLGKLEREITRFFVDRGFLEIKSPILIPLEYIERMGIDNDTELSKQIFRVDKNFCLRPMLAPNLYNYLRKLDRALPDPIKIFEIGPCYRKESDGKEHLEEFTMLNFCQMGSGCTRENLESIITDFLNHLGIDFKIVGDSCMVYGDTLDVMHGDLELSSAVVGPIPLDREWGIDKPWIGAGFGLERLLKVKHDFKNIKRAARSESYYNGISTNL
Description: Anti-FLAG detected tagged PylRS. FIG. 8B: Specific labelling of mCh-TAG-EGFP-HA (immunoprecipitated from 10^6 cells) with 4a (20 μM in 50 μL PBS, 1 h, RT) confirms the incorporation of 3 into protein in HEK293 cells. FIG. 8C: SORT-M labelling of 3 that is statistically incorporated into newly synthesised proteins across the whole proteome of mammalian cells directed by six different PylRS/PyltRNAXXX (mutants using 0.5 mM 3. Labeling with 4g (20 μM in PBS, 1 h, RT, as above). The amino acids in parentheses are the natural amino acids encoded by the endogenous tRNA bearing the corresponding anti-codon.
HEK293 Cells (ATCC CRL-1573) were plated on 24 well plates and grown to near confluence. The cells were transfected using Lipofectamine 2000 (Invitrogen) with the pMmPylS-mCherry-TAG-EGFP-HA construct and the p4CMVE-U6-PylT construct.^18 After 16 hrs growth with or without 1 mM 3 or with 1 mM 1 the cells were lysed on ice using RIPA buffer (Sigma). The lysates were spun down and the supernatant was added to 4×LDS sample buffer (Life technologies). The samples were run out by SDS-PAGE, transferred to a nitrocellulose membrane and blotted using primary rat anti-HA(clone 3F10, Roche, No. 867 423) and mouse anti-FLAG (clone G191, Abnova, cat. MAB8183), the secondary antibodies were anti-rat (Invitrogen, A11077) and anti-mouse (Cell Signaling Technologies, No. 7076S).

CC1=CC1COC(=O)NCCCC[C@H](N)C(=O)O (stereo partly drawn) [amino acid 3, N^ε-[((2-methylcycloprop-2-en-1-yl)methoxy)carbonyl]-L-lysine]
on-protein rate constants of reaction with tetrazines [1]: 27 M⁻¹ s⁻¹ | full-length mCherry-EGFP-HA protein expression (PylRS/tRNACUA pair): detected only in the presence
